Among the data in US11566022B2, “3-(5-methoxy-1-oxoisoindolin-2-yl)piperidine-2,6-dione derivatives and uses thereof” (NOVARTIS AG, priority 2019, dated 2023) are Dmax, remaining activity and DC50 values, retold here.

This experiment concerns the target HiBit-WIZ fusion protein (Homo sapiens, UniProt O95785+Q96SW2). Put plainly: Quantification of WIZ protein levels in HiBit tag fusion protein assay (WIZ HiBit assay in 293T cells). The format is cell-based. Details: Dmax: dose or concentration left out as unconfirmed. To be noted: for Dmax / remaining activity at up to 25 µM: HEK-293T, 293T cells; for Dmax: 100 minus Amax, read-out: % degradation of WIZ (100-Amax); for remaining activity at up to 25 µM: DMSO-normalized, curve-fitted percentage of WIZ-HiBit remaining at 25 uM, read-out: WIZ Amax; for DC50: WIZ HiBit assay in 293T cells, 10-point, 5-fold dose response, highest concentration 25 μM, about 18 hours, read-out: WIZ AC50.

SMILES strings stand for the structures.

Sequence of HiBit-WIZ fusion protein (O95785 whole entry, the tested form may be a part): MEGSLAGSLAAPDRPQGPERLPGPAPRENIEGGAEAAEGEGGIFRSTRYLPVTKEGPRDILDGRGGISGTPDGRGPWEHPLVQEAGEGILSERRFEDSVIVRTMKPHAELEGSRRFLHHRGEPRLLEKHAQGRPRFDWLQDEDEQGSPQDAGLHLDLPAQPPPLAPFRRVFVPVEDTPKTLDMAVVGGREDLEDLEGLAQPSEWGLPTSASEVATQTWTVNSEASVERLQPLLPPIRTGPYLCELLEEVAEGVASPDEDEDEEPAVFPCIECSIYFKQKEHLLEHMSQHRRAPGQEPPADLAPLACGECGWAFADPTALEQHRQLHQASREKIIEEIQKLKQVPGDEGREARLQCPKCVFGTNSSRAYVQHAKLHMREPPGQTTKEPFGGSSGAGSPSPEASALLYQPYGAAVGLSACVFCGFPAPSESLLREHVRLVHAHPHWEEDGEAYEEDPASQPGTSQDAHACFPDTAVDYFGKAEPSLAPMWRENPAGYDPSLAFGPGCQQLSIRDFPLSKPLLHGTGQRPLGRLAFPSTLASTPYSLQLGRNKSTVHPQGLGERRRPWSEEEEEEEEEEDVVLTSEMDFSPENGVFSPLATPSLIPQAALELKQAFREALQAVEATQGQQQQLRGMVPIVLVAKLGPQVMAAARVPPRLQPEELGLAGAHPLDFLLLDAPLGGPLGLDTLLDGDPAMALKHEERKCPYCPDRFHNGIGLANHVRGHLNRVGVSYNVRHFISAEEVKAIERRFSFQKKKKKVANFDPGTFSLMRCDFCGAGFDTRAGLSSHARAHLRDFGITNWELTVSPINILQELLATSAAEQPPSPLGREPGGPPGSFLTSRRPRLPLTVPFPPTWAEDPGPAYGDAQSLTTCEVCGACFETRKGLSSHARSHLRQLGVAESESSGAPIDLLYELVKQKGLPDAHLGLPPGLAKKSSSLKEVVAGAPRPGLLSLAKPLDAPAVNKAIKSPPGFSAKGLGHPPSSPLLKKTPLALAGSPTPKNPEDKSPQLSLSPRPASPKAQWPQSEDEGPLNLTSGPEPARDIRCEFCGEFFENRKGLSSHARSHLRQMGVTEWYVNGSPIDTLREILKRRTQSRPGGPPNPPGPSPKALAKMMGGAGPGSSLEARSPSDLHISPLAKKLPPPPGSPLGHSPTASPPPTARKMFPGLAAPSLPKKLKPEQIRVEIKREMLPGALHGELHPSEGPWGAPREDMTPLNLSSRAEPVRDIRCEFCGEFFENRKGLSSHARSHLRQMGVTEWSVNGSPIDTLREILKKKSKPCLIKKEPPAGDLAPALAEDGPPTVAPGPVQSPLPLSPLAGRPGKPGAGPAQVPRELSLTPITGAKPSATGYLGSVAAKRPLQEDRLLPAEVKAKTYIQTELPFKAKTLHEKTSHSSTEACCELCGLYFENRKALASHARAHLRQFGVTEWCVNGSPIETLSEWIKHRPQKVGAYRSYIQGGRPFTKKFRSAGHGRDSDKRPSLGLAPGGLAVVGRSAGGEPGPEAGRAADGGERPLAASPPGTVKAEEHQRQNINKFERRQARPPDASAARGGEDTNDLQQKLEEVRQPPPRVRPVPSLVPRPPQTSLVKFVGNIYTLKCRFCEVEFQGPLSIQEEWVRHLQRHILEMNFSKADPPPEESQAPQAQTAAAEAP
Sequence of HiBit-WIZ fusion protein (Q96SW2 whole entry, the tested form may be a part): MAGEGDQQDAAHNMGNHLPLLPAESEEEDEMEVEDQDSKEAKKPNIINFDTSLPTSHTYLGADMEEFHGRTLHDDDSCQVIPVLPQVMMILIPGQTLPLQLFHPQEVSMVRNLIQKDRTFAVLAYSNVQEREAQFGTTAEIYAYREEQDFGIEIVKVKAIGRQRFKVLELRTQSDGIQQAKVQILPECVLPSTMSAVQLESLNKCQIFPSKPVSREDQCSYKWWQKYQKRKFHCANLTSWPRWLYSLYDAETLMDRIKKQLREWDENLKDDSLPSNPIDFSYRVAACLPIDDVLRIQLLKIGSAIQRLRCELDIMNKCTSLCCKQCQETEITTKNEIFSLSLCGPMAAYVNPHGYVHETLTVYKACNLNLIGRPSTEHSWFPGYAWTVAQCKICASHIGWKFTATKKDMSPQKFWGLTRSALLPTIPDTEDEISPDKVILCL
Sequence of HiBit-WIZ fusion protein (Q16531 whole entry partner, the tested form may be a part): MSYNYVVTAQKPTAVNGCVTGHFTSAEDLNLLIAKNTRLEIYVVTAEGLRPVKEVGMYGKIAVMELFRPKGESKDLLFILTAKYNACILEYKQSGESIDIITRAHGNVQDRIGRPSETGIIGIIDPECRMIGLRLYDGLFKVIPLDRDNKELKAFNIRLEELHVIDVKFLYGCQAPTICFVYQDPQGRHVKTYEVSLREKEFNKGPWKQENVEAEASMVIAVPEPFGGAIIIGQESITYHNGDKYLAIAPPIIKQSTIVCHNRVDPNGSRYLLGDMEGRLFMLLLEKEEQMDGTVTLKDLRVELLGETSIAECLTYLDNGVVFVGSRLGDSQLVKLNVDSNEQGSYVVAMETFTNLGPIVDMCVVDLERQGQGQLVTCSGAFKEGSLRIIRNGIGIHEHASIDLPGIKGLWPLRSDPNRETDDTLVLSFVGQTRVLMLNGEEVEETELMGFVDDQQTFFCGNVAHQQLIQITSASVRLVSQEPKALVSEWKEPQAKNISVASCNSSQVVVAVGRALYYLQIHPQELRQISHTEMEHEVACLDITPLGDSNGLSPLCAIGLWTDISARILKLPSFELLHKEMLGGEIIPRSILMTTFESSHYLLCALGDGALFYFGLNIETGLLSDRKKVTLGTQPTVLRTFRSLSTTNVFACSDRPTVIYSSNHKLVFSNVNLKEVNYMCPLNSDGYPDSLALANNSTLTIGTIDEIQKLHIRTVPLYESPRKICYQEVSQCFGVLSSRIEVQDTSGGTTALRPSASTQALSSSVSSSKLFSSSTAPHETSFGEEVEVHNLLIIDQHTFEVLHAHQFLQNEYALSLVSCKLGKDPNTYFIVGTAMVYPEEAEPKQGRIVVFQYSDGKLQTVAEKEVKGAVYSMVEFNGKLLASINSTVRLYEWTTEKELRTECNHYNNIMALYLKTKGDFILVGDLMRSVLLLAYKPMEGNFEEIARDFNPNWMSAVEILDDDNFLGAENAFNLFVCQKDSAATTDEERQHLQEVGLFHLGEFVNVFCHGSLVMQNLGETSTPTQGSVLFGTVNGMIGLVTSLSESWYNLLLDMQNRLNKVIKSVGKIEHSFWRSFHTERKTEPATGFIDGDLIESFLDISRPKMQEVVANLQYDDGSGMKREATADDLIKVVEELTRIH

Take `CN(C)c1ncc(CN2CCCC[C@H]2COc2ccc3c(c2)CN(C2CCC(=O)NC2=O)C3=O)cn1` (stereo partly drawn) [Compound I-50m]: the Dmax came out at 46.6%, the remaining activity at up to 25 µM was found to be 53.4% and the DC50 was more than 25 µM.
Taken in the same sequence, the figures for `O=C1CCC(N2Cc3cc(OC[C@@H]4CCCCN4Cc4c(F)cccc4Cl)ccc3C2=O)C(=O)N1` (stereo partly drawn) [Compound I-50n] were 98.3%, 1.7% and 0.022 µM.
The matching figures for `O=C1CCC(N2Cc3cc(OC[C@@H]4CCCCN4Cc4ccc(N5CCCC5=O)cc4)ccc3C2=O)C(=O)N1` (stereo partly drawn) [Compound I-50o]: 58.4%, 41.6% and 12.5 µM.
Taken in the same sequence, the figures for `O=C1CCC(N2Cc3cc(OC[C@@H]4CCCCN4Cc4cnn(C5CCCCC5)c4)ccc3C2=O)C(=O)N1` (stereo partly drawn) [Compound I-50p] were 93.2%, 6.8% and 0.047 µM.
On to `O=C1CCC(N2Cc3cc(OC[C@@H]4CCCCN4Cc4ccccc4Cn4cncn4)ccc3C2=O)C(=O)N1` (stereo partly drawn) [Compound I-50q], for which the Dmax stood at 4.5%, the remaining activity at up to 25 µM was determined as 95.5% and the DC50 was more than 25 µM.
The matching figures for `COc1cc(C#N)ccc1CN1CCCC[C@H]1COc1ccc2c(c1)CN(C1CCC(=O)NC1=O)C2=O` (stereo partly drawn) [Compound I-50r]: 34.4%, 65.6% and more than 25 µM.
The matching figures for `COc1cc(CN2CCCC[C@H]2COc2ccc3c(c2)CN(C2CCC(=O)NC2=O)C3=O)ccc1C` (stereo partly drawn) [Compound I-50s]: 84.3%, 15.7% and 3.8 µM.
Taken in the same sequence, the figures for `Cn1ccc2c(CN3CCCC[C@H]3COc3ccc4c(c3)CN(C3CCC(=O)NC3=O)C4=O)cccc21` (stereo partly drawn) [Compound I-50t] were 85.2%, 14.8% and 0.269 µM.
As for `Cc1nccn1-c1ccc(CN2CCCC[C@H]2COc2ccc3c(c2)CN(C2CCC(=O)NC2=O)C3=O)cc1` (stereo partly drawn) [Compound I-50u], the Dmax worked out at 70.1%, the remaining activity at up to 25 µM worked out at 29.9% and the DC50 was 2.64 µM.
Taken in the same sequence, the figures for `O=C1CCC(N2Cc3cc(OC[C@@H]4CCCCN4Cc4ncc[nH]4)ccc3C2=O)C(=O)N1` (stereo partly drawn) [Compound I-50w] were 25.9%, 74.1% and more than 25 µM.
Take `O=C1CCC(N2Cc3cc(OC[C@@H]4CCCCN4Cc4cc(-n5nnnc5C(F)(F)F)ccc4O)ccc3C2=O)C(=O)N1` (stereo partly drawn) [Compound I-50x]: the Dmax is 22%, the remaining activity at up to 25 µM stood at 78% and the DC50 is more than 25 µM.
The matching figures for `Cn1nnc2cc(CN3CCCC[C@@H]3COc3ccc4c(c3)CN(C3CCC(=O)NC3=O)C4=O)ccc21` (stereo partly drawn) [Compound I-50y]: 85.2%, 14.8% and 0.179 µM.
The matching figures for `CN(C)Cc1ncc(-c2ccc(Oc3cc(Cl)cnc3CN3CCCC[C@H]3COc3ccc4c(c3)CN(C3CCC(=O)NC3=O)C4=O)cc2)n1C` (stereo partly drawn) [Compound I-50z]: 79.2%, 20.8% and 3.2 µM.
The matching figures for `CCN1CCOC[C@H]1COc1ccc2c(c1)CN(C1CCC(=O)NC1=O)C2=O` (stereo partly drawn) [Compound I-64, 3-(5-(((S)-4-ethylmorpholin-3-yl)methoxy)-1-oxoisoindolin-2-yl)piperidine-2,6-dione]: 21.5%, 78.5% and more than 25 µM.
Regarding `O=C1CCC(N2Cc3cc(OC[C@@H]4CCCCN4C(=O)c4cccc(S(=O)(=O)O)c4)ccc3C2=O)C(=O)N1` (stereo partly drawn) [Compound I-72a], the Dmax was 11.2%, the remaining activity at up to 25 µM was determined as 88.8% and the DC50 is more than 25 µM.
With `O=C1CCC(N2Cc3cc(OC[C@@H]4CCCCN4C(=O)c4ccc(Cl)c(I)c4)ccc3C2=O)C(=O)N1` (stereo partly drawn) [Compound I-72ad], the Dmax is 52.8%, the remaining activity at up to 25 µM turned out to be 47.2% and the DC50 came out at 17.4 µM.
Regarding `O=C1CCC(N2Cc3cc(OC[C@@H]4CCCCN4C(=O)c4cccc(N5CCOCC5)n4)ccc3C2=O)C(=O)N1` (stereo partly drawn) [Compound I-72ae], the Dmax worked out at 14.7%, the remaining activity at up to 25 µM is 85.3% and the DC50 was more than 25 µM.
The matching figures for `O=C1CCC(N2Cc3cc(OC[C@@H]4CCCCN4C(=O)Cc4cc[nH]n4)ccc3C2=O)C(=O)N1` (stereo partly drawn) [Compound I-72af]: 7.7%, 92.3% and more than 25 µM.
The matching figures for `CC(Oc1ccccc1Cl)C(=O)N1CCCC[C@H]1COc1ccc2c(c1)CN(C1CCC(=O)NC1=O)C2=O` (stereo partly drawn) [Compound I-72ag]: 5.4%, 94.6% and more than 25 µM.
Turning to `CCc1ocnc1C(=O)N1CCCC[C@H]1COc1ccc2c(c1)CN(C1CCC(=O)NC1=O)C2=O` (stereo partly drawn) [Compound I-72ah], the Dmax worked out at 22.9%, the remaining activity at up to 25 µM is 77.1% and the DC50 was more than 25 µM.
The matching figures for `COc1ccc(-c2cc(C(=O)N3CCCC[C@H]3COc3ccc4c(c3)CN(C3CCC(=O)NC3=O)C4=O)[nH]n2)cc1` (stereo partly drawn) [Compound I-72ai]: 41.6%, 58.4% and more than 25 µM.
The matching figures for `O=C1CCC(N2Cc3cc(OC[C@@H]4CCCCN4C(=O)c4cc(-c5ccc(Br)cc5)on4)ccc3C2=O)C(=O)N1` (stereo partly drawn) [Compound I-72ak]: 78.9%, 21.1% and 0.686 µM.
Take `O=C1CCC(N2Cc3cc(OC[C@@H]4CCCCN4C(=O)c4ccc(N5CCOCC5)cc4)ccc3C2=O)C(=O)N1` (stereo partly drawn) [Compound I-72an]: the Dmax was found to be 53.8%, the remaining activity at up to 25 µM is 46.2% and the DC50 was 13.8 µM.
The matching figures for `Cn1ccc(C(=O)N2CCCC[C@H]2COc2ccc3c(c2)CN(C2CCC(=O)NC2=O)C3=O)cc1=O` (stereo partly drawn) [Compound I-72ao]: 8.3%, 91.7% and more than 25 µM.
Regarding `Cc1noc(-c2ccc(C(=O)N3CCCC[C@H]3COc3ccc4c(c3)CN(C3CCC(=O)NC3=O)C4=O)cc2)n1` (stereo partly drawn) [Compound I-72ar], the Dmax is 71.8%, the remaining activity at up to 25 µM came to 28.2% and the DC50 was 2.57 µM.
Taken in the same sequence, the figures for `CCCc1cc(C(=O)N2CCCC[C@H]2COc2ccc3c(c2)CN(C2CCC(=O)NC2=O)C3=O)no1` (stereo partly drawn) [Compound I-72au] were 39.9%, 60.1% and more than 25 µM.
As for `O=C1CCC(N2Cc3cc(OC[C@@H]4CCCCN4C(=O)c4cccc(N5CCCCC5)n4)ccc3C2=O)C(=O)N1` (stereo partly drawn) [Compound I-72av], the Dmax came to 24.3%, the remaining activity at up to 25 µM came to 75.7% and the DC50 was more than 25 µM.
With `CCCCc1cnc(C(=O)N2CCCC[C@H]2COc2ccc3c(c2)CN(C2CCC(=O)NC2=O)C3=O)nc1OC` (stereo partly drawn) [Compound I-72aw], the Dmax amounted to 60.4%, the remaining activity at up to 25 µM was 39.6% and the DC50 was 8.52 µM.
The matching figures for `CCc1cncc(C(=O)N2CCCC[C@H]2COc2ccc3c(c2)CN(C2CCC(=O)NC2=O)C3=O)c1` (stereo partly drawn) [Compound I-72ay]: 17.6%, 82.4% and more than 25 µM.
The matching figures for `COc1ccncc1C(=O)N1CCCC[C@H]1COc1ccc2c(c1)CN(C1CCC(=O)NC1=O)C2=O` (stereo partly drawn) [Compound I-72bc]: 3%, 97% and more than 25 µM.
Regarding `CC(C)(C#N)c1cc(C(=O)N2CCCC[C@H]2COc2ccc3c(c2)CN(C2CCC(=O)NC2=O)C3=O)ccn1` (stereo partly drawn) [Compound I-72be], the Dmax amounted to 11.8%, the remaining activity at up to 25 µM amounted to 88.2% and the DC50 was more than 25 µM.
Turning to `O=C1CCC(N2Cc3cc(OC[C@@H]4CCCCN4C(=O)c4cccc(Cn5cncn5)c4)ccc3C2=O)C(=O)N1` (stereo partly drawn) [Compound I-72bi], the Dmax worked out at 3.9%, the remaining activity at up to 25 µM worked out at 96.1% and the DC50 was more than 25 µM.
The matching figures for `Cc1c(-c2ccccc2)n[nH]c1C(=O)N1CCCC[C@H]1COc1ccc2c(c1)CN(C1CCC(=O)NC1=O)C2=O` (stereo partly drawn) [Compound I-72by]: 52%, 48% and 19.8 µM.
For `CC(C)(C)Cc1cc(C(=O)N2CCCC[C@H]2COc2ccc3c(c2)CN(C2CCC(=O)NC2=O)C3=O)no1` (stereo partly drawn) [Compound I-72bz], the Dmax worked out at 46.7%, the remaining activity at up to 25 µM came to 53.3% and the DC50 is more than 25 µM.
The matching figures for `O=C1CCC(N2Cc3cc(OC[C@@H]4CCCCN4C(=O)c4cnnn4-c4ccccc4)ccc3C2=O)C(=O)N1` (stereo partly drawn) [Compound I-72c]: 20.6%, 79.4% and more than 25 µM.
Taken in the same sequence, the figures for `O=C1CCC(N2Cc3cc(OC[C@@H]4CCCCN4C(=O)CCN4CCOCC4)ccc3C2=O)C(=O)N1` (stereo partly drawn) [Compound I-72ca] were 10.2%, 89.8% and more than 25 µM.
Regarding `CC(C)c1cc(C(=O)N2CCCC[C@H]2COc2ccc3c(c2)CN(C2CCC(=O)NC2=O)C3=O)no1` (stereo partly drawn) [Compound I-72cf], the Dmax was found to be 35%, the remaining activity at up to 25 µM was 65% and the DC50 was more than 25 µM.
With `Cc1n[nH]c(CC(=O)N2CCCC[C@H]2COc2ccc3c(c2)CN(C2CCC(=O)NC2=O)C3=O)n1` (stereo partly drawn) [Compound I-72cg], the Dmax was determined as 2.2%, the remaining activity at up to 25 µM came out at 97.8% and the DC50 is more than 25 µM.
